# In patent publication US5081113A, “Novel 3-keto-steroids” (Roussel Uclaf, priority 1989, dated 1992):
# Read-outs that look alike come from different tables or passages of the source.
# What was measured:
# [1] = tested on: lipid peroxidation (MDA formation) in brain homogenates; assay: Test of formation of malondialdehyde (MDA), non-enzymatic lipid peroxidation triggered by ferrous sulfate in brain homogenates; assay type: biochemical, S-D rats; conditions: brain homogenate, 60 minutes at 37° C.
# Description: 1.1 MDA formation was measured on 10-fold diluted (V/V) homogenates of brains of S-D rats (200 g) prepared in Krebs buffer pH 7.4 under the conditions described in J. Biol. Chem., Vol. 262 (1987), p. 10438 to 10440. 1 ml of homogenate was incubated for 60 minutes at 37° C. in the presence of 25 microliters of ethanol or water or a mixture of the two depending on the product containing or not containing the test product, after the addition of 25 microliters of ferrous sulfate solution prepared immediately before use in water outgassed with argon (200 micromoles final). 0.25 ml of incubated mixture were withdrawn and 1.5 ml of 1% strength phosphoric acid, 0.25 ml of a solution containing 200 micromoles of deferoxamine (Desferal^.phi., Ciba Geigy) in water, 10 microliters of butylated hydroxy-toluene (BHT) at a concentration of 8.7 mg/ml in ethanol and 0.5 ml of thiobarbituric acid (TBA) at a concentration of 0.6% in water were added. The mixture was heated to 100° C. for 45 minutes and cooled. 4 ml of n-butanol were added and the mixture was centrifuged for 15 minutes at 4000 rpm and the OD of the supernatant fraction was then read at 535 nm. The reaction blanks in the absence of Fe^++ were incubated under the same conditions.
# [2] = tested on: lipid peroxidation (MDA formation) in rat liver microsomes; assay: Test of formation of malondialdehyde (MDA), non-enzymatic lipid peroxidation triggered by ferrous sulfate in rat liver microsomes; assay type: biochemical, S-D rats; conditions: ferrous sulfate/ascorbate, pH 7.4, 15 minutes at 37° C.
# Description: The reaction was stopped by adding 2 ml of a 1M solution of trichloroacetic acid in 0.25M hydrochloric acid containing 0.4% of thiobarbituric acid. The mixture was heated to 85° C. for 25 minutes, cooled and centrifuged for 15 minutes at 3500 rpm, and the OD of the supernatant fraction was then read at 535 nm. The reaction blanks in the absence of Fe^++ were performed at the same time. The percentage inhibition was calculated as above.
# [3] = tested on: lipid peroxidation (MDA formation) in rat liver microsomes; conditions: liver microsomes of phenobarbital-pretreated rats, NADPH/carbon tetrachloride, pH 7.4, 15 minutes at 37° C.
Compound,percentage inhibition (MDA formation) ([1]; 1 * 10^-4 M) [%],percentage inhibition (MDA formation) ([1]; 1 * 10^-5 M) [%],percentage inhibition (MDA formation) ([1]; 5 * 10^-4 M) [%],percentage inhibition (MDA formation) ([2]; 1*10^-5 M) [%],percentage inhibition (MDA formation) ([2]; 1*10^-6 M) [%],percentage inhibition (MDA formation) ([2]; 5*10^-6 M) [%],percentage inhibition (MDA formation) ([3]; 1*10^-5 M) [%],percentage inhibition (MDA formation) ([3]; 1*10^-6 M) [%],percentage inhibition (MDA formation) ([3]; 5*10^-6 M) [%],percentage inhibition (MDA formation) ([2]; 5*10^-5 M) [%]
"CCN(CC)c1ccc(N(CC)CC)c(N2CCN(CC#C[C@]3(O)CC[C@H]4[C@@H]5C=C(C)C6=CC(=O)C=C[C@]6(C)[C@H]5[C@@H](O)C[C@@]43C)CC2)n1 [Example 4, 17α-[3-{4-[3,6-bis(diethylamino)-2-pyridyl]-1-piperazinyl}-1-propynyl]-6-methyl-Δ^1,4,6-androstatrien-11β,17β-diol-3-one]",51.0 ± 12.4,48.5 ± 13.1,65.4 ± 10.1,100,51 ± 3,99.5,91 ± 2,49 ± 2,85,–
"C[C@]12CCC(=O)C=C1C=C[C@@H]1[C@@H]2[C@@H](O)C[C@@]2(C)[C@H]1CC[C@@]2(O)C#CCN1CCN(c2cc(N3CCCC3)nc(N3CCCC3)n2)CC1 [Example 1, 17α-[3-{4-[(2,6-bis(1-pyrrolidinyl)-4-pyrimidinyl]-1-piperazinyl}-1-propynyl]-Δ^4,6-androstadien-11β,17β-diol-3-one methanesulfonate]",9.8 ± 11.2,-10.6 ± 9.0,60.8 ± 3.0,46 ± 3,0 ± 18,19.5 ± 6,86 ± 2,16 ± 1,75 ± 4,97.5 ± 0.5
CC1=C[C@@H]2[C@H]([C@@H](O)C[C@@]3(C)[C@H]2CC[C@@]3(O)C#CCN2CCN(c3cc(N4CCCC4)nc(N4CCCC4)n3)CC2)[C@@]2(C)C=CC(=O)C=C12 [Example 2],26.6 ± 3.9,28.0 ± 4.1,53.1 ± 7.8,11.3 ± 2,0 ± 2,0 ± 3,80 ± 1,22 ± 1.5,61 ± 1.5,85 ± 1.5
"CCN(CC)c1ccc(N2CCN(CC#C[C@]3(O)CC[C@H]4[C@@H]5C=C(C)C6=CC(=O)C=C[C@]6(C)[C@H]5[C@@H](O)C[C@@]43C)CC2)nc1N(CC)CC [Example 3, 17α-[3-{4-[5,6-bis(diethylamino)-2-pyridyl]-1-piperazinyl}-1-propynyl]-6-methyl-Δ^1,4,6-androstatrien-11β,17β-diol-3-one]",62.9 ± 4.5,51.3 ± 13.7,64.2 ± 10,95.5,55 ± 9,99.5,93,48 ± 2,89 ± 2,–
